Values of other authors in patent publication US20140294923A1, “ACTH FOR TREATMENT OF MIGRAINE HEADACHE” (priority 2013, published 2014).

Test system: CGRP release
Conditions: experimental models; Ulrich-Lai 2001

ACTH (SYSMEHFRWGKPVGKKRRPVKVYPDGAEDQLAEAFPLEF)
release of CGRP: inhibit the release of CGRP
